Test results from ChEMBL document CHEMBL1201862, “PubChem BioAssay data set” (2004).
Calls of active or inactive are those of the source.

Key:
Caspase-3 = biological target: T1, Caspase-3 (Homo sapiens, UniProt P42574); assay: inhibition of recombinant caspase-3 activity – biochemical, luminescence, set 2, selectivity assay for SENP protease inhibitor project, SAR follow-up (AID 588599); format: functional
T1 sequence (P42574 whole entry): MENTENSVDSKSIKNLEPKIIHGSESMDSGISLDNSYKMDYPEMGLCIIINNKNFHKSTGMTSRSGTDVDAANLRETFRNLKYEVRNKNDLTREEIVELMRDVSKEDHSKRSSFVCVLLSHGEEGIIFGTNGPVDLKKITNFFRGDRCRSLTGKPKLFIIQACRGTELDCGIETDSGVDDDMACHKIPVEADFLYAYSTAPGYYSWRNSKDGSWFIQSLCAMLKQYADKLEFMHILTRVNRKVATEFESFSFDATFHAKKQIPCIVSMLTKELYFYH

[1] = biological target: T2, Sentrin-specific protease 6 (Homo sapiens, UniProt Q9GZR1); assay: inhibition of human SENP6 catalytic domain – biochemical, luminescence, set 2, SAR follow-up (AID 588598); format: functional
T2 sequence (Q9GZR1 whole entry): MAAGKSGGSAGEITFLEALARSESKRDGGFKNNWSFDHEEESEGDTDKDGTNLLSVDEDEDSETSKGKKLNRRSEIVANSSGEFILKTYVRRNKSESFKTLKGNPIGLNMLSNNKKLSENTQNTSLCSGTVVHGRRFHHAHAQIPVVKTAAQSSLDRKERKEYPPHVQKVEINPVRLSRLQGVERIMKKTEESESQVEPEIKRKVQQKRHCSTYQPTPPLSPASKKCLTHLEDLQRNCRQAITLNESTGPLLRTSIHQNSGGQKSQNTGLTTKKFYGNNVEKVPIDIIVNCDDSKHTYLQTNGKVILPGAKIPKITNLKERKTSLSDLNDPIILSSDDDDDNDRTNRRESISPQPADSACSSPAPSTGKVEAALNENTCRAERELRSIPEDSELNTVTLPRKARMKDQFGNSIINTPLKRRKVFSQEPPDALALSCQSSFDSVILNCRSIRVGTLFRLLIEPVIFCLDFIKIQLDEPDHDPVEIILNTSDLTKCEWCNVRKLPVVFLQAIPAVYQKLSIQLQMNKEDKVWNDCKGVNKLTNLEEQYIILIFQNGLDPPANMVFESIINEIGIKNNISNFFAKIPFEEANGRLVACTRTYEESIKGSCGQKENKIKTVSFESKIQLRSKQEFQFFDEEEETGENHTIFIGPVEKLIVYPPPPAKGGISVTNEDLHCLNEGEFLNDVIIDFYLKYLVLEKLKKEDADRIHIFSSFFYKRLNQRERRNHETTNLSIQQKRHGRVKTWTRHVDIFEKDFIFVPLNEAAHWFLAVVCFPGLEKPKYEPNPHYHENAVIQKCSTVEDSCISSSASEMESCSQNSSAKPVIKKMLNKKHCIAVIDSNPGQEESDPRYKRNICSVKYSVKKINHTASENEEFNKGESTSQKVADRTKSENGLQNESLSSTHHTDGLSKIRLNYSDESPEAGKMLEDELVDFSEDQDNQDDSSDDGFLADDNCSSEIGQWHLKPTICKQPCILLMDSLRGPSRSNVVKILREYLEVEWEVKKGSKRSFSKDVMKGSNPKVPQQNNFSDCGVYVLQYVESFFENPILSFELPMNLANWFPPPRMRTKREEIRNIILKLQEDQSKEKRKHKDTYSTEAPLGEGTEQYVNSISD

[2] = biological target: T3, Sentrin-specific protease 7 (Homo sapiens, UniProt Q9BQF6); assay: inhibition of human SENP7 cleavage activity – biochemical, luminescence, set 2, SAR follow-up (AID 588600); format: functional
T3 sequence (Q9BQF6 whole entry): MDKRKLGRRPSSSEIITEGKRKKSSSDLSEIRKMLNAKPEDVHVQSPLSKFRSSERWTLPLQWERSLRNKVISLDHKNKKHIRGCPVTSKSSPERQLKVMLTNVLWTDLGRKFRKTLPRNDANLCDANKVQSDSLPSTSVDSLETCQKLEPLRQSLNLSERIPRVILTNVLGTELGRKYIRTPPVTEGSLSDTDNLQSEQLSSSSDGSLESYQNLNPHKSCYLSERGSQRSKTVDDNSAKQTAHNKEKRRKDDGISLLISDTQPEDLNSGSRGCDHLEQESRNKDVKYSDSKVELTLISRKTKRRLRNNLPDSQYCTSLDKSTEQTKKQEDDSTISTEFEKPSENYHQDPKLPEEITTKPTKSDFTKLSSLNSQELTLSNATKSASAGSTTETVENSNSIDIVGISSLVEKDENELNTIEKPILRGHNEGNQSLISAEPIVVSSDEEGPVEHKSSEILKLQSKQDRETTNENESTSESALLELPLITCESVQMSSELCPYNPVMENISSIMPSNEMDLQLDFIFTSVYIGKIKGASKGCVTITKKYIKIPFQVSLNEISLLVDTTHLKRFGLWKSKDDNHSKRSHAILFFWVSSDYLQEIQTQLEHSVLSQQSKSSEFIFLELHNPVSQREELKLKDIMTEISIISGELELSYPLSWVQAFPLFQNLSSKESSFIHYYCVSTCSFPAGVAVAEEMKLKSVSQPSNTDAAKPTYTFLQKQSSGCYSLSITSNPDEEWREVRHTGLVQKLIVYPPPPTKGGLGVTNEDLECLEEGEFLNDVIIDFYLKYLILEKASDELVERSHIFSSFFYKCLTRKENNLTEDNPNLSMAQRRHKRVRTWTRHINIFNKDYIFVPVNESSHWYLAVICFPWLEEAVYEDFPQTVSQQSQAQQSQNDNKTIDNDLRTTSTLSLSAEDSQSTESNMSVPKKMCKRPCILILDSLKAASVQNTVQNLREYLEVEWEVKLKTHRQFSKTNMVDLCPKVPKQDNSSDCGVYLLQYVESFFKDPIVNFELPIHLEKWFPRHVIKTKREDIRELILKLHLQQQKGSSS

[3] = biological target: T4, Sentrin-specific protease 8 (Homo sapiens, UniProt Q96LD8); assay: inhibition of sentrin protease 8 – biochemical, luminescence, set 2, SAR follow-up (AID 588601); format: functional
T4 sequence (Q96LD8 whole entry): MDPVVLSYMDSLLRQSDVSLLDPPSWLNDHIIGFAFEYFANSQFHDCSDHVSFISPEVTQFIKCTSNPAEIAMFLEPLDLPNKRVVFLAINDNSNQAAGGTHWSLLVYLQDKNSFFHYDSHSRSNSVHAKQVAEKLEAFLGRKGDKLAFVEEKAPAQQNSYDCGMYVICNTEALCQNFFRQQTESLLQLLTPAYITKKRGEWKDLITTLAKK

HEK293 [4] = assay: SAR Analysis of small molecule inhibitors of both B-cell and T-cell specific antigen receptor-induced NF-kB activation in a HEK-293T cell line using a luminescence assay. [Related pubchem assays (depositor defined):AID435003, AID435022, AID465, AID489019, AID489029]; format: functional, cell-based; details: Homo sapiens
Jurkat = assay: SAR Analysis of small molecule inhibitors of both B-cell and T-cell specific antigen receptor-induced NF-kB activation in a Jurkat cell line using a luminescence assay. [Related pubchem assays (depositor defined):AID435003, AID435022, AID465, AID489029]; format: functional, cell-based; details: Homo sapiens
HEK293 [5] = assay: HEK293T cell viability loss, resazurin readout – resazurin fluorescence, cytotoxicity control for NF-kB activator project, SAR follow-up (AID 493251); format: functional, cell-based; details: Homo sapiens
Beta Lactamase = Beta Lactamase (Pseudomonas aeruginosa, UniProt Q932Y6); assay: BLA reporter interference, concentration series – BLA reporter cells, FRET fluorescence, artefact control for TLR9-MyD88 binding inhibitor project, dose response (AID 588341); format: cell-based;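 note: cell based assay in CHO-K1 cells stably expressing beta-lactamase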
Paired box protein Pax-8 = Paired box protein Pax-8 (Homo sapiens, UniProt Q06710); assay: PAX8 transcriptional activity inhibition in RMG-I – RMG-I cells, luciferase, cherry-pick, dose response (AID 687027); format: functional, cell-based;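 note: luciferase reporter driven by Pax8 target thyroperoxidase promoter measured by SteadyGlo luminescence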
CHO = CHO cell viability loss, potency – luminescence, cytotoxicity control for TLR9-MyD88 binding inhibitor project, dose response (AID 588339); format: functional, cell-based, hamster; details: Cricetulus griseus;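 note: CHO cells stably coexpressing TLR9 and MyD88 fusions from primary screen; compound exposure lasted 48 hours before viability readout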
[6] = NIH3T3 cell viability loss – ATP luminescence, mouse fibroblasts, counter-screen, dose response (AID 2010); format: functional, cell-based;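 note: cells exposed to compound for about 90 hours before reading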
[7] = Trypanosoma cruzi growth suppression in host cells – NIH3T3 host cells, beta-gal luminescence, confirmation (AID 2044); format: functional, cell-based;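 note: intracellular parasites grown in NIH/3T3 mouse fibroblasts as host cells; luminescent beta-galactosidase reporter signal from transgenic T. cruzi replicating inside host cells; inhibitors lower the luminescence signal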
Protein RecA = biological target: T5, Protein RecA (Mycobacterium tuberculosis, UniProt P9WHJ3); assay: Fluorescence Cell-Free Homogeneous Dose Retest to Identify Inhibitors of RecA-Intein Splicing Activity. [Related pubchem assays (depositor defined):AID2097, AID2223, AID489010, AID492950]; format: functional
T5 sequence (P9WHJ3 whole entry): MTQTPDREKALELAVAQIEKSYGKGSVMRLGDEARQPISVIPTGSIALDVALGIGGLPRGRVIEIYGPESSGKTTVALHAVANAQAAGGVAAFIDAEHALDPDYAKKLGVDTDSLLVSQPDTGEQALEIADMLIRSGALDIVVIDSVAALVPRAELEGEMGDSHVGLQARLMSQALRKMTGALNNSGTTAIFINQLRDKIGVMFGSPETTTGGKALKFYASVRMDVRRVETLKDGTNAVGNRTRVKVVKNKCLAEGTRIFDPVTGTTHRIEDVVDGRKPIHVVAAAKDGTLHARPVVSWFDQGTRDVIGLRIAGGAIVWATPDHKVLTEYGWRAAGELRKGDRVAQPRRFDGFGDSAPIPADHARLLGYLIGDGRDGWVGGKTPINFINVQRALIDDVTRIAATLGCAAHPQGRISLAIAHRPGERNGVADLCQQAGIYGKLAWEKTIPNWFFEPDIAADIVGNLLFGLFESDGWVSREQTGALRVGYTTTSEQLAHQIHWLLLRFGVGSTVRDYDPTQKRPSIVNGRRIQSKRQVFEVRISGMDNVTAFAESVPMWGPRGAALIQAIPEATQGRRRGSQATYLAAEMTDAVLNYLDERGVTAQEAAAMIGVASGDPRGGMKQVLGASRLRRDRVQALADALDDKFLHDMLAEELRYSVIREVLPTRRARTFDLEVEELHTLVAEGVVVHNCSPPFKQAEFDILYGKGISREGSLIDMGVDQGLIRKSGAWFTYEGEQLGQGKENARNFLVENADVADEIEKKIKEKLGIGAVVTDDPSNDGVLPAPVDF

[8] = biological target: T6, Heat shock factor protein 1 (Mus musculus, UniProt P38532); assay: decrease of HSF1-responsive luciferase luminescence – cell-based, NIH3T3, dose retest, confirmation (AID 2382); format: functional;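 note: NIH3T3 fibroblasts with HSF1-driven luciferase reporter stressed by proteasome inhibitor MG132; luminescence from HSF1-driven luciferase expression after 8 hours of MG132 stress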
T6 sequence (P38532 whole entry): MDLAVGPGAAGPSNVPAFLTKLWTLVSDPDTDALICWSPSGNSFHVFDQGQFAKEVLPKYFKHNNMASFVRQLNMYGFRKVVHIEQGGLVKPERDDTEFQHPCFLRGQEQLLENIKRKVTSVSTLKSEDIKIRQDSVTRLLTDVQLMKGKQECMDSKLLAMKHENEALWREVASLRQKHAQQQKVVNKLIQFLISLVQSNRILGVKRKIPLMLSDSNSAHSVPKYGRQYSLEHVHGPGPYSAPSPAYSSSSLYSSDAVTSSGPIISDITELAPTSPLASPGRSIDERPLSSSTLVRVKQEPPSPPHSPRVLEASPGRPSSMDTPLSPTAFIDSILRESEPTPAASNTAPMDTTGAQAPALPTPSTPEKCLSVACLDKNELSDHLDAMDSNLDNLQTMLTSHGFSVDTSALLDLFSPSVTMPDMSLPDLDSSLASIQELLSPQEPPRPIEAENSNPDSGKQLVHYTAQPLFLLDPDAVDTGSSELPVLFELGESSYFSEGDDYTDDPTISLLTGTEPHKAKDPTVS

[9] = biological target: T7, Replicative DNA helicase DnaB (Mycobacterium tuberculosis, UniProt P9WMR3); assay: DnaB intein splicing inhibitors, dose response, biochemical, cell-free fluorescence (AID 449749); format: functional
T7 sequence (P9WMR3 whole entry): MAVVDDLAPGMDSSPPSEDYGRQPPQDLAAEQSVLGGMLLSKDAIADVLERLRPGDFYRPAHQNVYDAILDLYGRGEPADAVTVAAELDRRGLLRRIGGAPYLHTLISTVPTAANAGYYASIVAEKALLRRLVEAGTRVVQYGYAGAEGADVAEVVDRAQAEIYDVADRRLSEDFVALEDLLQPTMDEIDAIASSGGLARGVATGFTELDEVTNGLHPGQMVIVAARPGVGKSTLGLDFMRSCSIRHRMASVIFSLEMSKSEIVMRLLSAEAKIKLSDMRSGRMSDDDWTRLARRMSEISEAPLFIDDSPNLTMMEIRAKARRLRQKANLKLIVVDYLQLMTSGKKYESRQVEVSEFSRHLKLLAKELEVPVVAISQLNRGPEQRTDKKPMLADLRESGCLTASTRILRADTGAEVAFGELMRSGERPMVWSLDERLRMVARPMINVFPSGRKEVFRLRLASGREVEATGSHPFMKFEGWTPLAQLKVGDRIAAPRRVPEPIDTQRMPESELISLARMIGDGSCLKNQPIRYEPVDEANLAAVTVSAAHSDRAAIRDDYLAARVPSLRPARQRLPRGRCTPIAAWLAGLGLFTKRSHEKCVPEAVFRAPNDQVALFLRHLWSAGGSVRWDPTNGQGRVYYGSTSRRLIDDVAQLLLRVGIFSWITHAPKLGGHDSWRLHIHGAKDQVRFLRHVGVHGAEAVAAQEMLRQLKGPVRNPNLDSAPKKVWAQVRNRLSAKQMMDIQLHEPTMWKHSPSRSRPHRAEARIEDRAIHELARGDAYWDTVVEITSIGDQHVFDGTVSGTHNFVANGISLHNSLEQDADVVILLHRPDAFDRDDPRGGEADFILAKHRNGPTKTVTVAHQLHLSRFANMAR

Sequence of Paired box protein Pax-8 (Q06710 whole entry, the tested form may be a part): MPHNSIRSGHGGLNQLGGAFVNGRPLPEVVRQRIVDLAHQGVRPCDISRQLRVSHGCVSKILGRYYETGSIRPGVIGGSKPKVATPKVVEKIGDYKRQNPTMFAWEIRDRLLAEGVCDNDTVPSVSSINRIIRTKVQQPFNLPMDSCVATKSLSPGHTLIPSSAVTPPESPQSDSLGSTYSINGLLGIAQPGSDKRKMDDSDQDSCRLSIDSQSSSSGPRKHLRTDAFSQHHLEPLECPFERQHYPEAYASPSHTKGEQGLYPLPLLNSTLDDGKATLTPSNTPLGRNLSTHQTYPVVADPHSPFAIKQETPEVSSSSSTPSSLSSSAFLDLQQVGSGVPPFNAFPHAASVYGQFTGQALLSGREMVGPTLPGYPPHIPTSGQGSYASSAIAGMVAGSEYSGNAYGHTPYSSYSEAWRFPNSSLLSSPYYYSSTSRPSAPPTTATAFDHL
Sequence of Beta Lactamase (Q932Y6 whole entry): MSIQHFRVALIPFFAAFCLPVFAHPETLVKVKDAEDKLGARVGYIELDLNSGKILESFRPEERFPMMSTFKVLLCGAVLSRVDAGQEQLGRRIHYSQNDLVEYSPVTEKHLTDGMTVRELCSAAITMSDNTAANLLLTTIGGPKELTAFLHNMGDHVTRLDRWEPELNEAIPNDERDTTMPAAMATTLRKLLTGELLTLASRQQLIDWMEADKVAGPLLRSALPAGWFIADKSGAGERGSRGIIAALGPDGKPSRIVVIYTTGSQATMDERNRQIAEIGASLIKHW

Q: Which IC50 (Caspase-3) does the source give for `CC(=O)Nc1ccc2nc(NC(=O)c3n[nH]c4ccccc34)sc2c1` here?
A: 4.41 µM (active)

Q: And the IC50 [1]?
A: > 99 µM (inactive)

Q: And the IC50 [2]?
A: > 99 µM (inactive)

Q: And the IC50 [3]?
A: 40.3 µM (active)

Q: With `Cc1ccc2cccc(N)c2n1` as the compound, how does the IC50 (HEK293 [4]) read?
A: > 79 µM (inactive)

Q: What about the IC50 (Jurkat) of the same compound?
A: > 79 µM (inactive)

Q: And the IC50 (HEK293 [5])?
A: > 80 µM (inactive)

Q: With `Cn1c(=O)c([N+](=O)[O-])c(Cl)c2ccccc21` as the compound, how does the IC50 (Beta Lactamase) read?
A: 17.8 µM (inactive)

Q: What about the AC50 (Paired box protein Pax-8) of the same compound?
A: 6.65 µM (active)

Q: What about the IC50 (CHO) of the same compound?
A: 1.18 µM (active)

Q: And the EC50 [6]?
A: 3.97 µM (active)

Q: And the EC50 [7]?
A: 1.87 µM (active)

Q: And the EC50 (Protein RecA)?
A: 4.25 µM (active)

Q: And the EC50 [8]?
A: 4.3 µM (active)

Q: And the AC50 [9]?
A: 5.18 µM (active)
